Read-outs that look alike come from different tables or passages of the source.

Ki, Kd and Km data for 7 compounds are collected here from patent US5252601A, “2-mercaptomethylene-tetrahydronaphthalene and indane-2-carboxamide derivatives as enkephalinase inhibitors” (Merrell Dow Pharmaceuticals Inc., priority 1992, dated 1993).

The target in experiment [1] is T1, Enkephalinase (Rattus norvegicus, UniProt P07861).
T1 construct: Enkephalinase is partially purified from rat kidney; from tissue; host or cells: rat kidney, microvilli fraction (Triton X-100 extract or proteolytic treatment, then Mono Q anion exchange)
T1 sequence (P07861 1-750): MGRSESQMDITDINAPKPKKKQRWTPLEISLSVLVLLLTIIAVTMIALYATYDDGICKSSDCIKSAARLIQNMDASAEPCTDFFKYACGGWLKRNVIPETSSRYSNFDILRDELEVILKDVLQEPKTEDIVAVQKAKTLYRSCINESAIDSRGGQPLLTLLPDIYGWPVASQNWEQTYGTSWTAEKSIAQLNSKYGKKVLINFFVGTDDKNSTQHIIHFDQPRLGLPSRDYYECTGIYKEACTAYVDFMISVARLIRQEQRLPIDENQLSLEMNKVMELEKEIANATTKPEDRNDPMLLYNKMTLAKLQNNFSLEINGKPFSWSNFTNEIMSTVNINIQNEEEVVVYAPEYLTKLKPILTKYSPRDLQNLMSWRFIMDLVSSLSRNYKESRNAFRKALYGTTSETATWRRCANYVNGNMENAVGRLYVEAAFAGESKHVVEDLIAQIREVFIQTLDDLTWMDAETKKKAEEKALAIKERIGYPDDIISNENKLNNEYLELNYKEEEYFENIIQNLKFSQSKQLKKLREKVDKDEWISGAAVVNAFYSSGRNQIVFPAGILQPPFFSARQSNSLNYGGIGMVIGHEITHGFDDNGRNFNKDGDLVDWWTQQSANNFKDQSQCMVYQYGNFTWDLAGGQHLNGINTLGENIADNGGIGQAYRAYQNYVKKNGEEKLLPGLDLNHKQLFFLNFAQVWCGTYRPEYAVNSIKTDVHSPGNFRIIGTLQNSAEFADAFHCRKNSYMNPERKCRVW
Briefly: Enkephalinase inhibition, fluorometric assay with dansyl-D-AlaGly(p-nitro)PheGly substrate. The following applies: 50 mM HEPES pH 7.4, 25° C.; for Ki: enzyme partially purified from rat kidney, 12 μM substrate. The class given is biochemical. An excerpt: Enkephalinase is partially purified from rat kidney. The enzyme is extracted from the microvilli fraction by using Triton X-100 according to the method of Malfroy and Schwartz [J. Biol. Chem. 259, 14365-14370 (1984)] or by using a proteolytic treatment according to the method of Almenoff and Orlowski [Biochem. 22, 590-599 (1983)]. The enzyme is further purified by anion exchange chromatography (Mono QTM column, Pharmacia) using a Pharmacia FPLC system. The enzyme activity may be measured by the fluorometric methods of Florentin et al. [Anal. Biochem. 141, 62-69 (1984)] or of Almenoff and Orlowski [J. Neurochemistry 42, 151-157 (1984)]. […] The substrate (and inhibitor) is added from a concentrated stock solution in DMSO (up to […] DMSO final volume). The enzyme in a small volume (approximately 0.1 μg of FPLC purified protein) is added to initiate the reaction and the rate of fluorecense increase is recorded continuously using a fluorometer (excitation at 339 nm, emission at 562 nm).

For experiment [2], the system named is specific binding sites in various tissues including kidney, adrenal, aorta, and vascular smooth muscle. The following applies: Needleman, Hypertension 7, 469 (1985), cited from earlier work.

`O=C(N[C@H]1CC[C@@H](C(=O)O)CC1)C1(CS)CCc2ccccc2C1` (relative stereo) [100,552, 4-[[[1,2,3,4-Tetrahydro-2-(mercarptomethyl)-2-naphthalenyl]carbonyl]amino]- cis-cyclohexanecarboxylic acid] gave a Ki in experiment [1] of 0.6 nM.
In the case of `O=C(O)CCNC(=O)C1(CS)CCc2ccccc2C1` (stereo not drawn) [100,185, N-[[1,2,3,4-Tetrahydro-2-(mercarptomethyl)-2-naphthalenyl]carbonyl]-β-alanine], the Ki in experiment [1] is not above 0.2 nM.
As to `O=C(O)CNC(=O)C1(CS)CCc2ccccc2C1` (centres unmarked) [100,250, N-[[1,2,3,4-Tetrahydro-2-(mercarptomethyl)-2-naphthalenyl]carbonyl]-glycine], the affinity in experiment [1] corresponds to a Ki of 0.4 nM.
In experiment [1], `CC(C)[C@H](NC(=O)C1(CS)CCc2ccccc2C1)C(=O)O` (stereo partly drawn) [101,782, N-[[1,2,3,4-Tetrahydro-2-(mercarptomethyl)-2-naphthalenyl]carbonyl]-L-valine] showed an inhibition constant Ki of 2 nM.
Still for that read-out and setting: the result for `C[C@H](NC(=O)C1(CS)CCc2ccccc2C1)C(=O)O` (stereo partly drawn) [101,890, N-[[1,2,3,4-Tetrahydro-2-(mercarptomethyl)-2-naphthalenyl]carbonyl]-L-alanine] reads 0.3 nM.
As to “ANP: family of naturally-occurring peptides which are involved in the homeostatic regulation of blood pressure, as well as sodium and water levels”, the Kd in experiment [2] (affinities ranging from about, read-out: affinity (lower end of range)) is not below 0.05 nM; in experiment [2] (affinities ranging to about, read-out: affinity (upper end of range)), not above 500 nM.
Consider “dansyl-D-AlaGly(p-nitro)PheGly [reference compound]”, for which the Km in experiment [1] (substrate of the assay) was 40 µM.

As a reminder, the Ki is a measure of affinity in units of concentration, obtained from inhibition or displacement. A high value points to lower affinity. In general, Km refers to the substrate concentration at which the rate is half of its maximum.
